Measured values taken from the supplement of paper PMC10307832.

Tests used:
Test in all cases: relative viability (nuclei count vs DMSO), 5 days (fraction); higher = more cells survive
HCC-15 = test system: HCC-15
Outline: (§1)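 The day after seeding in 1536-well plates, lung cancer cell lines were treated by pin tool with a single drug, or with a fixed anchor-drug dose together with five library-drug doses (not always all listed) in √10 steps. After 5 days, a combined fix-and-stain solution (final 0.05% Triton X-100, 1% formaldehyde, 1 ug/ml Hoechst) was added. Nuclei counted on 4× images gave relative viability as treated counts over vehicle counts, reported as the median of duplicate plates.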

HCC-827 = test system: HCC-827
Outline: as §1

COR-L 105 = test system: COR-L 105
Outline: as §1

HCC-44 = test system: HCC-44
Outline: as §1

EPLC-272H = test system: EPLC-272H
Outline: as §1

NCI-H522 = test system: NCI-H522
Outline: as §1

SK-MES-1 = test system: SK-MES-1
Outline: as §1

HCC-78 = test system: HCC-78
Outline: as §1

NCI-H1648 = test system: NCI-H1648
Outline: as §1

NCI-H2009 = test system: NCI-H2009
Outline: as §1

NCI-H596 = test system: NCI-H596
Outline: as §1

RERF-LC-KJ = test system: RERF-LC-KJ
Outline: as §1

NCI-H661 = test system: NCI-H661
Outline: as §1

SW 1573 = test system: SW 1573
Outline: as §1

NCI-H650 = test system: NCI-H650
Outline: as §1

LCLC-97TM1 = test system: LCLC-97TM1
Outline: as §1

NCI-H1395 = test system: NCI-H1395
Outline: as §1

NCI-H1792 = test system: NCI-H1792
Outline: as §1

NCI-H647 = test system: NCI-H647
Outline: as §1

HCC-366 = test system: HCC-366
Outline: as §1

NCI-H1993 = test system: NCI-H1993
Outline: as §1

NCI-H358 = test system: NCI-H358
Outline: as §1

Compound C=C1C(=O)O[C@@H](CCCCCCCC)[C@@H]1C(=O)O [C-75] + Nc1nc2[nH]cc(CCc3ccc(C(=O)N[C@@H](CCC(=O)O)C(=O)O)cc3)c2c(=O)[nH]1 [Pemetrexed] (partner 0.2 µM) has a relative viability (HCC-15; first compound 0.08 µM) of 0.246, a relative viability (HCC-15; first compound 0.253 µM) of 0.239 and a relative viability (HCC-15; first compound 0.8 µM) of 0.203. The relative viability (HCC-15; first compound 2.53 µM) was 0.208, the relative viability (HCC-15; first compound 8 µM) was 0.223 and the relative viability (HCC-827; first compound 0.253 µM) was 0.271. It also gave a relative viability (HCC-827; first compound 0.8 µM) of 0.279, a relative viability (HCC-827; first compound 8 µM) of 0.287 and a relative viability (COR-L 105; first compound 0.08 µM) of 1.14. The relative viability (COR-L 105; first compound 0.253 µM) was 1.07, the relative viability (COR-L 105; first compound 0.8 µM) was 1.07 and the relative viability (COR-L 105; first compound 2.53 µM) was 1.24. It also gave a relative viability (COR-L 105; first compound 8 µM) of 0.96, a relative viability (HCC-44; first compound 0.08 µM) of 0.58 and a relative viability (HCC-44; first compound 0.253 µM) of 0.698. The relative viability (HCC-44; first compound 0.8 µM) was 0.683, the relative viability (HCC-44; first compound 2.53 µM) was 0.572 and the relative viability (HCC-44; first compound 8 µM) was 0.634. It also gave a relative viability (EPLC-272H; first compound 0.08 µM) of 0.313, a relative viability (EPLC-272H; first compound 0.253 µM) of 0.267 and a relative viability (EPLC-272H; first compound 0.8 µM) of 0.329. For the same compound, the relative viability (EPLC-272H; first compound 2.53 µM) was 0.202, the relative viability (EPLC-272H; first compound 8 µM) was 0.24 and the relative viability (NCI-H522; first compound 0.08 µM) was 1.02. For the same compound, the relative viability (NCI-H522; first compound 0.253 µM) was 0.76, the relative viability (NCI-H522; first compound 0.8 µM) was 0.828 and the relative viability (NCI-H522; first compound 2.53 µM) was 0.869. The relative viability (NCI-H522; first compound 8 µM) was 0.879, the relative viability (SK-MES-1; first compound 0.08 µM) was 0.97 and the relative viability (SK-MES-1; first compound 0.253 µM) was 0.911. For the same compound, the relative viability (SK-MES-1; first compound 0.8 µM) was 0.839, the relative viability (SK-MES-1; first compound 2.53 µM) was 0.766 and the relative viability (SK-MES-1; first compound 8 µM) was 0.919. It also gave a relative viability (HCC-78; first compound 0.08 µM) of 0.829, a relative viability (HCC-78; first compound 0.253 µM) of 0.902 and a relative viability (HCC-78; first compound 0.8 µM) of 0.839. For the same compound, the relative viability (HCC-78; first compound 8 µM) was 0.893, the relative viability (NCI-H1648; first compound 0.08 µM) was 0.731 and the relative viability (NCI-H1648; first compound 0.253 µM) was 1.01. It also gave a relative viability (NCI-H1648; first compound 0.8 µM) of 0.681, a relative viability (NCI-H1648; first compound 8 µM) of 0.606 and a relative viability (NCI-H2009; first compound 0.08 µM) of 1.12. For the same compound, the relative viability (NCI-H2009; first compound 0.253 µM) was 0.924, the relative viability (NCI-H2009; first compound 0.8 µM) was 0.947 and the relative viability (NCI-H2009; first compound 2.53 µM) was 0.886. The relative viability (NCI-H2009; first compound 8 µM) was 0.975, the relative viability (NCI-H596; first compound 0.08 µM) was 0.503 and the relative viability (NCI-H596; first compound 0.253 µM) was 0.432. The relative viability (NCI-H596; first compound 0.8 µM) was 0.461, the relative viability (NCI-H596; first compound 2.53 µM) was 0.47 and the relative viability (NCI-H596; first compound 8 µM) was 0.481. It also gave a relative viability (RERF-LC-KJ; first compound 0.08 µM) of 0.456, a relative viability (RERF-LC-KJ; first compound 0.253 µM) of 0.487 and a relative viability (RERF-LC-KJ; first compound 0.8 µM) of 0.469. It also gave a relative viability (RERF-LC-KJ; first compound 2.53 µM) of 0.46, a relative viability (RERF-LC-KJ; first compound 8 µM) of 0.461 and a relative viability (NCI-H661; first compound 0.08 µM) of 0.919. The relative viability (NCI-H661; first compound 0.253 µM) was 0.925, the relative viability (NCI-H661; first compound 0.8 µM) was 0.856 and the relative viability (NCI-H661; first compound 2.53 µM) was 0.783. The relative viability (NCI-H661; first compound 8 µM) was 0.881, the relative viability (SW 1573; first compound 0.08 µM) was 0.947 and the relative viability (SW 1573; first compound 0.253 µM) was 0.874. The relative viability (SW 1573; first compound 0.8 µM) was 0.728, the relative viability (SW 1573; first compound 2.53 µM) was 0.684 and the relative viability (SW 1573; first compound 8 µM) was 0.706. It also gave a relative viability (NCI-H650; first compound 0.08 µM) of 1.28, a relative viability (NCI-H650; first compound 0.253 µM) of 0.888 and a relative viability (NCI-H650; first compound 0.8 µM) of 0.857. For the same compound, the relative viability (NCI-H650; first compound 2.53 µM) was 0.823, the relative viability (NCI-H650; first compound 8 µM) was 0.882 and the relative viability (LCLC-97TM1; first compound 0.08 µM) was 0.197. The relative viability (LCLC-97TM1; first compound 0.253 µM) was 0.195, the relative viability (LCLC-97TM1; first compound 0.8 µM) was 0.177 and the relative viability (LCLC-97TM1; first compound 2.53 µM) was 0.129. The relative viability (LCLC-97TM1; first compound 8 µM) was 0.145, the relative viability (NCI-H1395; first compound 0.08 µM) was 0.881 and the relative viability (NCI-H1395; first compound 0.253 µM) was 0.807. It also gave a relative viability (NCI-H1395; first compound 2.53 µM) of 0.758, a relative viability (NCI-H1395; first compound 8 µM) of 0.914 and a relative viability (NCI-H1792; first compound 0.08 µM) of 0.816. For the same compound, the relative viability (NCI-H1792; first compound 0.253 µM) was 0.92, the relative viability (NCI-H1792; first compound 0.8 µM) was 0.882 and the relative viability (NCI-H1792; first compound 2.53 µM) was 0.481. It also gave a relative viability (NCI-H1792; first compound 8 µM) of 0.678, a relative viability (NCI-H647; first compound 0.08 µM) of 0.181 and a relative viability (NCI-H647; first compound 0.253 µM) of 0.186. It also gave a relative viability (NCI-H647; first compound 0.8 µM) of 0.167, a relative viability (NCI-H647; first compound 2.53 µM) of 0.171 and a relative viability (NCI-H647; first compound 8 µM) of 0.128. The relative viability (HCC-366; first compound 0.08 µM) was 0.156, the relative viability (HCC-366; first compound 0.253 µM) was 0.183 and the relative viability (HCC-366; first compound 0.8 µM) was 0.149. It also gave a relative viability (HCC-366; first compound 2.53 µM) of 0.22, a relative viability (HCC-366; first compound 8 µM) of 0.188 and a relative viability (NCI-H1993; first compound 0.08 µM) of 0.564. For the same compound, the relative viability (NCI-H1993; first compound 0.253 µM) was 0.716, the relative viability (NCI-H1993; first compound 0.8 µM) was 0.541 and the relative viability (NCI-H1993; first compound 2.53 µM) was 0.652. It also gave a relative viability (NCI-H1993; first compound 8 µM) of 0.478, a relative viability (NCI-H358; first compound 0.08 µM) of 0.169 and a relative viability (NCI-H358; first compound 0.253 µM) of 0.185. The relative viability (NCI-H358; first compound 0.8 µM) was 0.168 and the relative viability (NCI-H358; first compound 8 µM) was 0.189.
